Reference: ChEMBL document CHEMBL4507294, “Data for DCP probe MSD-CYP11B2” (2021)

Columns and labels:
[1] = system: Phosphatidylinositol 4,5-bisphosphate 3-kinase catalytic subunit alpha isoform (Homo sapiens), P42336 [C420R]; settings: Compound concentration 1000.0 nM
[2] = target: Myosin light chain kinase family member 4 (Homo sapiens) (UniProt Q86YV6); settings: Compound concentration 1000.0 nM
[3] = target: Angiopoietin-1 receptor (Homo sapiens) (UniProt Q02763); settings: Compound concentration 1000.0 nM
[4] = target: Mitogen-activated protein kinase 14 (Homo sapiens) (UniProt Q16539); settings: Compound concentration 1000.0 nM
[5] = target: Serine/threonine-protein kinase WNK2 (Homo sapiens) (UniProt Q9Y3S1); settings: Compound concentration 1000.0 nM
[6] = target: 5-hydroxytryptamine receptor 1A (Homo sapiens) (UniProt P08908); settings: Compound concentration 10.0 uM
[7] = target: Tyrosine-protein kinase Fgr (Homo sapiens) (UniProt P09769); settings: Compound concentration 1000.0 nM
[8] = target: Serine/threonine-protein kinase RIO3 (Homo sapiens) (UniProt O14730); settings: Compound concentration 1000.0 nM
[9] = target: Calcium/calmodulin-dependent protein kinase kinase 2 (Homo sapiens) (UniProt Q96RR4); settings: Compound concentration 1000.0 nM
[10] = target: Serine/threonine-protein kinase PLK4 (Homo sapiens) (UniProt O00444); settings: Compound concentration 1000.0 nM
[11] = target: 5'-AMP-activated protein kinase catalytic subunit alpha-2 (Homo sapiens) (UniProt P54646); settings: Compound concentration 1000.0 nM
[12] = target: ALK tyrosine kinase receptor (Homo sapiens) (UniProt Q9UM73); settings: Compound concentration 1000.0 nM
[13] = target: T1, Muscarinic acetylcholine receptor M2 (Homo sapiens) (UniProt P08172); settings: Compound concentration 10.0 uM
T1 sequence (whole entry): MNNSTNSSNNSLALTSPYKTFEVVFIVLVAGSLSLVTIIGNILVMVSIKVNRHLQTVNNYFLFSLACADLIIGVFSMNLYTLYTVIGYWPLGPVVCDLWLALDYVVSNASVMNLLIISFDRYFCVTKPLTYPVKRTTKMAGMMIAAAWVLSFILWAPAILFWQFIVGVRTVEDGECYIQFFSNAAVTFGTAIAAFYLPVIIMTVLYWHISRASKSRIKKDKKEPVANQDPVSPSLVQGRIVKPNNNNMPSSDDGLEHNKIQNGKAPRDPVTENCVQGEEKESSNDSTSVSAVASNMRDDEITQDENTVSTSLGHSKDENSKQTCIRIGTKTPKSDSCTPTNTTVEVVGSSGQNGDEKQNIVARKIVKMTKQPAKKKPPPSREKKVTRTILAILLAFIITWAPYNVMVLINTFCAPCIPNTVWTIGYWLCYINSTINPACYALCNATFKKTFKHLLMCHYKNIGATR

[14] = target: Serine/threonine-protein kinase 4 (Homo sapiens) (UniProt Q13043); settings: Compound concentration 1000.0 nM
[15] = target: Dual specificity tyrosine-phosphorylation-regulated kinase 1A (Homo sapiens) (UniProt Q13627); settings: Compound concentration 1000.0 nM
[16] = target: Serine/threonine-protein kinase tousled-like 2 (Homo sapiens) (UniProt Q86UE8); settings: Compound concentration 1000.0 nM
[17] = target: Serine/threonine-protein kinase MARK2 (Homo sapiens) (UniProt Q7KZI7); settings: Compound concentration 1000.0 nM
[18] = target: Cyclin-dependent kinase 16 (Homo sapiens) (UniProt Q00536); settings: Compound concentration 1000.0 nM
[19] = target: Serine/threonine-protein kinase 36 (Homo sapiens) (UniProt Q9NRP7); settings: Compound concentration 1000.0 nM
[20] = system: Epidermal growth factor receptor (Homo sapiens), P00533 [UNDEFINED MUTATION]; settings: Compound concentration 1000.0 nM
[21] = target: Tyrosine-protein kinase Mer (Homo sapiens) (UniProt Q12866); settings: Compound concentration 1000.0 nM
[22] = system: Tyrosine-protein kinase ABL1 (Homo sapiens), P00519 [Q252H]; settings: Compound concentration 1000.0 nM
[23] = target: Homeodomain-interacting protein kinase 4 (Homo sapiens) (UniProt Q8NE63); settings: Compound concentration 1000.0 nM
[24] = target: Serine/threonine-protein kinase Nek2 (Homo sapiens) (UniProt P51955); settings: Compound concentration 1000.0 nM
[25] = target: Tyrosine-protein kinase JAK3 (Homo sapiens) (UniProt P52333); settings: Compound concentration 1000.0 nM
[26] = target: Ribosomal protein S6 kinase alpha-1 (Homo sapiens) (UniProt Q15418); settings: Compound concentration 1000.0 nM
[27] = target: Serine/threonine-protein kinase DCLK1 (Homo sapiens) (UniProt O15075); settings: Compound concentration 1000.0 nM
[28] = target: Ribosomal protein S6 kinase alpha-4 (Homo sapiens) (UniProt O75676); settings: Compound concentration 1000.0 nM
[29] = target: Dual serine/threonine and tyrosine protein kinase (Homo sapiens) (UniProt Q6XUX3); settings: Compound concentration 1000.0 nM
[30] = target: Cyclin-dependent kinase 4 (Homo sapiens) (UniProt P11802); settings: Compound concentration 1000.0 nM
[31] = target: Cyclin-dependent kinase 14 (Homo sapiens) (UniProt O94921); settings: Compound concentration 1000.0 nM
[32] = target: Non-receptor tyrosine-protein kinase TNK1 (Homo sapiens) (UniProt Q13470); settings: Compound concentration 1000.0 nM
[33] = target: 5-hydroxytryptamine receptor 5A (Homo sapiens) (UniProt P47898); settings: Compound concentration 10.0 uM
[34] = target: Sodium-dependent dopamine transporter (Homo sapiens) (UniProt Q01959); settings: Compound concentration 10.0 uM
[35] = target: Membrane-associated tyrosine- and threonine-specific cdc2-inhibitory kinase (Homo sapiens) (UniProt Q99640); settings: Compound concentration 1000.0 nM
[36] = target: Mitogen-activated protein kinase kinase kinase kinase 1 (Homo sapiens) (UniProt Q92918); settings: Compound concentration 1000.0 nM
[37] = target: Mitogen-activated protein kinase kinase kinase 9 (Homo sapiens) (UniProt P80192); settings: Compound concentration 1000.0 nM
[38] = target: Mast/stem cell growth factor receptor Kit (Homo sapiens) (UniProt P10721); settings: Compound concentration 1000.0 nM
[39] = target: Activin receptor type-1 (Homo sapiens) (UniProt Q04771); settings: Compound concentration 1000.0 nM

Chain of Dual serine/threonine and tyrosine protein kinase (Homo sapiens) (Q6XUX3 whole entry): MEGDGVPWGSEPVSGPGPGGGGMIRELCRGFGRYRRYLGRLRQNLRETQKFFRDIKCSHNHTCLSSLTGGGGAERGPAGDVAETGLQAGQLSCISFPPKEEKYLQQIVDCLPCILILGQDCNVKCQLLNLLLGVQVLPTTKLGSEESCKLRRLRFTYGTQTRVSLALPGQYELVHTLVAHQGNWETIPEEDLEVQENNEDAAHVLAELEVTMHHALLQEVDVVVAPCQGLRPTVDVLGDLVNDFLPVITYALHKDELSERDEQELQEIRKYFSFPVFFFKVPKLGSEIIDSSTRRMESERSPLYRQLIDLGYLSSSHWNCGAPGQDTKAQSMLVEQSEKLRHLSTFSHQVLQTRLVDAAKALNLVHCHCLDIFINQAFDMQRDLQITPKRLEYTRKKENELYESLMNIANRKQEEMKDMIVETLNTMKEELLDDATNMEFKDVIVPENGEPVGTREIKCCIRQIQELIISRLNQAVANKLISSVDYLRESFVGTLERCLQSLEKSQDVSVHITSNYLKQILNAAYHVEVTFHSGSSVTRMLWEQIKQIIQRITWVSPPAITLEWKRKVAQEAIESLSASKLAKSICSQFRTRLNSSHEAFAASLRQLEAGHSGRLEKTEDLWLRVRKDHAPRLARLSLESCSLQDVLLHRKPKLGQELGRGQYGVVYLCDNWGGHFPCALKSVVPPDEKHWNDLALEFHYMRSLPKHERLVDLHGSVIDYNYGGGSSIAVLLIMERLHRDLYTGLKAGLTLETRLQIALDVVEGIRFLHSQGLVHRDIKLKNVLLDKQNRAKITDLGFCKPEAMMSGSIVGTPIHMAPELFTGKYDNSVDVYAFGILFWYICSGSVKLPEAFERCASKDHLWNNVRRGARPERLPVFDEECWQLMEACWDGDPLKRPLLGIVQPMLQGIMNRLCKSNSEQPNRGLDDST
Chain of Epidermal growth factor receptor (Homo sapiens), P00533 [UNDEFINED MUTATION] (P00533 whole entry, looked up, change not shown): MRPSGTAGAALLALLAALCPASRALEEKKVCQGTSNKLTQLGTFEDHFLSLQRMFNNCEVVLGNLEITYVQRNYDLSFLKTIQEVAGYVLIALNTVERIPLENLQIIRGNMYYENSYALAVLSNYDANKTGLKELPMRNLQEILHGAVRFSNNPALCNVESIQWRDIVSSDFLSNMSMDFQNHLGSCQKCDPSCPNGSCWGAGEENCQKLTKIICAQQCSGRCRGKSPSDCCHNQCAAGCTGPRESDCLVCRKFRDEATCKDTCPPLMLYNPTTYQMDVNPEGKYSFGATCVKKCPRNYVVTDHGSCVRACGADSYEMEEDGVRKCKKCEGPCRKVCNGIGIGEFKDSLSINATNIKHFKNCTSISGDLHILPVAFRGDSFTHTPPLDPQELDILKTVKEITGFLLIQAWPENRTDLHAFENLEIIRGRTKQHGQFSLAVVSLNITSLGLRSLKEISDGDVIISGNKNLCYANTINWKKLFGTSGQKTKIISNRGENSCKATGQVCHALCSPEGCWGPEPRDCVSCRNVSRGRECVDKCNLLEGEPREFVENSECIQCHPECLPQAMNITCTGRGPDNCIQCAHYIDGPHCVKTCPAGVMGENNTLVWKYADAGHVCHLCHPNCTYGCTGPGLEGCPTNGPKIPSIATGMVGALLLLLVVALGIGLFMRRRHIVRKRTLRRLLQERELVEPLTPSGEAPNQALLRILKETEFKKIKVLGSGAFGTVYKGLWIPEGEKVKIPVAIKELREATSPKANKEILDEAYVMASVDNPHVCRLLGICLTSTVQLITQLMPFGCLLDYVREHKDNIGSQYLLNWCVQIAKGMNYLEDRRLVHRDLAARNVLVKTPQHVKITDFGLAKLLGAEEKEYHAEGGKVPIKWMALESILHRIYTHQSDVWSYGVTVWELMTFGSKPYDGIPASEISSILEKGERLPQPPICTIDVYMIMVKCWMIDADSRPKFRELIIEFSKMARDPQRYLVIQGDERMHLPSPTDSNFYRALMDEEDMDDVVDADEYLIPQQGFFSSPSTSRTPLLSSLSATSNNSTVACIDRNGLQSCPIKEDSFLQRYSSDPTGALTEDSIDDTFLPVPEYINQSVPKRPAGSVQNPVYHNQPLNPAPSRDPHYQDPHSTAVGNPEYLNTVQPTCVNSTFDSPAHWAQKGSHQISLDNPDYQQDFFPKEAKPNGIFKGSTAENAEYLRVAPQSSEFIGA
Chain of Calcium/calmodulin-dependent protein kinase kinase 2 (Homo sapiens) (Q96RR4 2-588 limits assumed): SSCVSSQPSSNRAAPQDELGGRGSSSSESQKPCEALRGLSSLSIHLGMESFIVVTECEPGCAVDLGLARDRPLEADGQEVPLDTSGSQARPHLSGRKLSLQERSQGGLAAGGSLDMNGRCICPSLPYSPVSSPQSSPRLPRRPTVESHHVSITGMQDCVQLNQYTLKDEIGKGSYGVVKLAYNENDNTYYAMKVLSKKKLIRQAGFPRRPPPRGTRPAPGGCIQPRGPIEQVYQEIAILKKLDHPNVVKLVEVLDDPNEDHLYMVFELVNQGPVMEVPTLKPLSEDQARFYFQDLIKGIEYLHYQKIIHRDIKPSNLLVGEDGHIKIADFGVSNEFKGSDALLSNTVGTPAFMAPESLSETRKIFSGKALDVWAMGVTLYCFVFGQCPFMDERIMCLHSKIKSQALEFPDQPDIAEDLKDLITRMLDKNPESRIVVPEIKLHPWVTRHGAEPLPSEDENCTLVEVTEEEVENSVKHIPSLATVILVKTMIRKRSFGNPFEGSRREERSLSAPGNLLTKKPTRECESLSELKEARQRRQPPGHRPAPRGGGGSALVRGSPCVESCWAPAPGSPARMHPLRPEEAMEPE
Chain of Myosin light chain kinase family member 4 (Homo sapiens) (Q86YV6 whole entry): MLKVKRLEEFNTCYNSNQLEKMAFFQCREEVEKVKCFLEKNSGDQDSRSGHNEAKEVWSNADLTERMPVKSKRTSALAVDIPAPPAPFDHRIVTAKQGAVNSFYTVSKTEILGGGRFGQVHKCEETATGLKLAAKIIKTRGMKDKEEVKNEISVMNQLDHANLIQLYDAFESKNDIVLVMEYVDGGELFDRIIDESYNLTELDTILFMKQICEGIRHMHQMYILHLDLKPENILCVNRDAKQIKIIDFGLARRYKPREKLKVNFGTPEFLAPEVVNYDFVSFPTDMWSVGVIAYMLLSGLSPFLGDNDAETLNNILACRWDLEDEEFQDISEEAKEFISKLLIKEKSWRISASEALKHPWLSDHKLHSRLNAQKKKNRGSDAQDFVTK
Chain of Ribosomal protein S6 kinase alpha-1 (Homo sapiens) (Q15418 whole entry): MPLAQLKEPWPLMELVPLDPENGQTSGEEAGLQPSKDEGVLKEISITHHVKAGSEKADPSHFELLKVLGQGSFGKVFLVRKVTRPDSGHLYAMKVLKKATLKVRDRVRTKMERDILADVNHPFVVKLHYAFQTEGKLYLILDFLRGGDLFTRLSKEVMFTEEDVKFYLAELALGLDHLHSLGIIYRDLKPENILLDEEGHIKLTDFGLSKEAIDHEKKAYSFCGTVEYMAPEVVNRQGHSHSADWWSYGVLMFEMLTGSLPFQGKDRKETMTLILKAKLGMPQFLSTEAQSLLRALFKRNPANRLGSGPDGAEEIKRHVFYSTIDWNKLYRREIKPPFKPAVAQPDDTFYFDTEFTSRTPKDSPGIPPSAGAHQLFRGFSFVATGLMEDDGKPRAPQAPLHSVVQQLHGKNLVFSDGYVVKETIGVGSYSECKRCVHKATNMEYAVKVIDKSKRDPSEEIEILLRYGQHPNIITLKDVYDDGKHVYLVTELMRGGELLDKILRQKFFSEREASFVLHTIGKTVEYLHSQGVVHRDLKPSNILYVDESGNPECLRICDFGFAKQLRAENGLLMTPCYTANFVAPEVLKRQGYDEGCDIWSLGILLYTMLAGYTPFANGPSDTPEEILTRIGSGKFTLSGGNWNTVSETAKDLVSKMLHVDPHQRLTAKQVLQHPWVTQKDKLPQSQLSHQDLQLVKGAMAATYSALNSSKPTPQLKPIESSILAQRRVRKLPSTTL
Chain of Serine/threonine-protein kinase PLK4 (Homo sapiens) (O00444 whole entry): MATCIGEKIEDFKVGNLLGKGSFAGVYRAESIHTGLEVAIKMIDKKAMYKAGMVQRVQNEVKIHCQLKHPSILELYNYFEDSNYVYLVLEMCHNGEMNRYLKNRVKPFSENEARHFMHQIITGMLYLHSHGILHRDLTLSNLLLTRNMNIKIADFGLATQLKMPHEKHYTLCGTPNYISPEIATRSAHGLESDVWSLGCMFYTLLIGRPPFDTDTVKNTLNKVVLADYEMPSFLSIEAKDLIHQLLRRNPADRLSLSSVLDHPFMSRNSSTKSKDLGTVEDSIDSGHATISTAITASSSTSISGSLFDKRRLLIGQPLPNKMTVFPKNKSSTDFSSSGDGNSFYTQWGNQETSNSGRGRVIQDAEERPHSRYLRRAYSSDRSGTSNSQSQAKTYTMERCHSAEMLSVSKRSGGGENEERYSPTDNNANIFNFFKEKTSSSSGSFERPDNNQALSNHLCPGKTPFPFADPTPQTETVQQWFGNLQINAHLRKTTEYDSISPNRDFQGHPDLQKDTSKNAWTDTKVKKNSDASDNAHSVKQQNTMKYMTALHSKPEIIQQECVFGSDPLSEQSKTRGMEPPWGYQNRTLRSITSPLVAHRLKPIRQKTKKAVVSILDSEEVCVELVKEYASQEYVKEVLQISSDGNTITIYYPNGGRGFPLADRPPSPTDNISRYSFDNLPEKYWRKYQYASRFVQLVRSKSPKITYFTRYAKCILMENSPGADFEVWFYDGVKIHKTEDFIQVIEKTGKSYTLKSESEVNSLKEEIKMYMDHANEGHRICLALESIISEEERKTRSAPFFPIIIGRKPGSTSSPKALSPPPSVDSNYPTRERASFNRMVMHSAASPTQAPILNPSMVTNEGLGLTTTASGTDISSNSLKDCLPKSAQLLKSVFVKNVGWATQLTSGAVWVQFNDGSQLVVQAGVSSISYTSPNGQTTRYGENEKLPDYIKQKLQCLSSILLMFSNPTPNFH

| SMILES | residual activity [1] [%] | residual activity [2] [%] | residual activity [3] [%] | residual activity [4] [%] | residual activity [5] [%] | inhibition [6] [%] | residual activity [7] [%] | residual activity [8] [%] | residual activity [9] [%] | residual activity [10] [%] | residual activity [11] [%] | residual activity [12] [%] | inhibition [13] [%] | residual activity [14] [%] | residual activity [15] [%] | residual activity [16] [%] | residual activity [17] [%] | residual activity [18] [%] | residual activity [19] [%] | residual activity [20] [%] | other results |
| --- | --- | --- | --- | --- | --- | --- | --- | --- | --- | --- | --- | --- | --- | --- | --- | --- | --- | --- | --- | --- | --- |
| FC(F)(F)c1ccc2c(c1)nc(-c1cccnc1)n2C1CC1 [MSD-CYP11B2-Negative-control] | 92 | 100 | 100 | 99 | 100 | 0.44 | 100 | 93 | 100 | 78 | 100 | 100 | 2.99 | 100 | 100 | 100 | 100 | 100 | 84 | 100 | residual activity [21]: 79%; residual activity [22]: 81%; residual activity [23]: 100%; residual activity [24]: 100%; residual activity [25]: 100%; residual activity [26]: 100%; residual activity [27]: 84%; residual activity [28]: 100%; residual activity [29]: 100%; residual activity [30]: 100%; residual activity [31]: 100%; residual activity [32]: 100%; inhibition [33]: -2.64%; inhibition [34]: 15.3%; residual activity [35]: 100%; residual activity [36]: 93%; residual activity [37]: 100%; residual activity [38]: 85%; residual activity [39]: 100% |
| CC(C)(O)c1cncc(-c2nc3ccc(F)cc3n2C2CC2)c1 [MSD-CYP11B2] | 96 | 100 | 93 | 100 | 100 | 1.22 | 100 | 100 | 100 | 79 | 100 | 77 | -0.1 | 100 | 48 | 100 | 100 | 100 | 93 | 100 | residual activity [21]: 96%; residual activity [22]: 89%; residual activity [23]: 100%; residual activity [24]: 100%; residual activity [25]: 100%; residual activity [26]: 100%; residual activity [27]: 88%; residual activity [28]: 100%; residual activity [29]: 100%; residual activity [30]: 100%; residual activity [31]: 100%; residual activity [32]: 100%; inhibition [33]: -9.57%; inhibition [34]: 1.47%; residual activity [35]: 100%; residual activity [36]: 99%; residual activity [37]: 100%; residual activity [38]: 86%; residual activity [39]: 100% |
